Experimental data: paper PMC12445698 (2025)

Legend:
Assay in all cases: ITC
Details in all cases: 50 mM KCl, 10 mM MgCl2; 40 mM HEPES pH 7.4
[1] = test system: I39C (RNA, riboswitch) GGGUUGUAUAAGCUCGUUAAUUUGGAAUGAGCGUAUCUACCAGGCAACCGUAAAUUGCCCCAGGCUACAAUC
[2] = test system: U38C (RNA, riboswitch) GGGUUGUAUAAGCUCGUUAAUUUGGAAUGAGCGUAUCCACAGGCAACCGUAAAUUGCCCCAGGCUACAAUC
[3] = test system: U38G-I39C (RNA, riboswitch) GGGUUGUAUAAGCUCGUUAAUUUGGAAUGAGCGUAUCGACCAGGCAACCGUAAAUUGCCCCAGGCUACAAUC

Structure (SMILES)	Kd [1]	Kd [2]	Kd [3]
Nc1nc2[nH]cnc2c(=O)[nH]1	0.0017 µM	1.3 µM	
O=c1[nH]c(=O)c2[nH]cnc2[nH]1	9.79 µM		14.6 µM
